# Measurements from US20140066410A1, “INHIBITORS OF BROMODOMAINS AS MODULATORS OF GENE EXPRESSION” (ICAHN SCHOOL OF MEDICINE AT MOUNT SINAI, priority 2011, published 2014).
# Entries after “also recorded” stand apart in the source; their conditions may differ.
# Experiments:
# [1] = test system: U20S cells; test: BRDU incorporation / cell cycle analysis; assay type: cell-based
# Experimental: BRDU incorporation assay for cell cycle evaluation was performed in 96 well plates using calorimetric based kit from Calbiochem (Cat# QiA58). Hundred microliter of 1×10^5/ml cells were plated in DMEM media (Mediatech) with 10% fetal bovine serum (FBS). After 12 hours cells were treated with compounds ischemin and MS 119 (50 μM) with or without doxorubicin treatment (5 μM). The controls were DMSO and untreated cells. BRDU was added for 24 hours treatment. After 24 hours cells were fixed and treated with anti-BRDU antibody. After washings, the wells were incubated with peroxidase. After final wash, the color was developed using TMB as substrate and the reaction was stopped with stop solution and optical density was estimated at 450 nm.
# DNA damage induced by doxorubicin leads to p53 stimulated cellular responses including cell cycle arrest, damage repair, and apoptosis. To determine the effect of ischemin on dividing U20S cells, U20S cells were treated with 5-bromo-2-deoxyuridine (BRDU) and the incorporated BRDU during in DNA synthesis was measured using an ELISA assay.
# [2] = target: T1, p53 binding to CBP (Homo sapiens, UniProt Q92793); test: HA-CBP and Flag-p53 pull-down assay in HEK 293T cells; assay type: cell-based; conditions: doxorubicin treatment
# T1 construct: expressed in transfected cells; host or cells: HEK 293T
# T1 sequence (Q92793 whole entry): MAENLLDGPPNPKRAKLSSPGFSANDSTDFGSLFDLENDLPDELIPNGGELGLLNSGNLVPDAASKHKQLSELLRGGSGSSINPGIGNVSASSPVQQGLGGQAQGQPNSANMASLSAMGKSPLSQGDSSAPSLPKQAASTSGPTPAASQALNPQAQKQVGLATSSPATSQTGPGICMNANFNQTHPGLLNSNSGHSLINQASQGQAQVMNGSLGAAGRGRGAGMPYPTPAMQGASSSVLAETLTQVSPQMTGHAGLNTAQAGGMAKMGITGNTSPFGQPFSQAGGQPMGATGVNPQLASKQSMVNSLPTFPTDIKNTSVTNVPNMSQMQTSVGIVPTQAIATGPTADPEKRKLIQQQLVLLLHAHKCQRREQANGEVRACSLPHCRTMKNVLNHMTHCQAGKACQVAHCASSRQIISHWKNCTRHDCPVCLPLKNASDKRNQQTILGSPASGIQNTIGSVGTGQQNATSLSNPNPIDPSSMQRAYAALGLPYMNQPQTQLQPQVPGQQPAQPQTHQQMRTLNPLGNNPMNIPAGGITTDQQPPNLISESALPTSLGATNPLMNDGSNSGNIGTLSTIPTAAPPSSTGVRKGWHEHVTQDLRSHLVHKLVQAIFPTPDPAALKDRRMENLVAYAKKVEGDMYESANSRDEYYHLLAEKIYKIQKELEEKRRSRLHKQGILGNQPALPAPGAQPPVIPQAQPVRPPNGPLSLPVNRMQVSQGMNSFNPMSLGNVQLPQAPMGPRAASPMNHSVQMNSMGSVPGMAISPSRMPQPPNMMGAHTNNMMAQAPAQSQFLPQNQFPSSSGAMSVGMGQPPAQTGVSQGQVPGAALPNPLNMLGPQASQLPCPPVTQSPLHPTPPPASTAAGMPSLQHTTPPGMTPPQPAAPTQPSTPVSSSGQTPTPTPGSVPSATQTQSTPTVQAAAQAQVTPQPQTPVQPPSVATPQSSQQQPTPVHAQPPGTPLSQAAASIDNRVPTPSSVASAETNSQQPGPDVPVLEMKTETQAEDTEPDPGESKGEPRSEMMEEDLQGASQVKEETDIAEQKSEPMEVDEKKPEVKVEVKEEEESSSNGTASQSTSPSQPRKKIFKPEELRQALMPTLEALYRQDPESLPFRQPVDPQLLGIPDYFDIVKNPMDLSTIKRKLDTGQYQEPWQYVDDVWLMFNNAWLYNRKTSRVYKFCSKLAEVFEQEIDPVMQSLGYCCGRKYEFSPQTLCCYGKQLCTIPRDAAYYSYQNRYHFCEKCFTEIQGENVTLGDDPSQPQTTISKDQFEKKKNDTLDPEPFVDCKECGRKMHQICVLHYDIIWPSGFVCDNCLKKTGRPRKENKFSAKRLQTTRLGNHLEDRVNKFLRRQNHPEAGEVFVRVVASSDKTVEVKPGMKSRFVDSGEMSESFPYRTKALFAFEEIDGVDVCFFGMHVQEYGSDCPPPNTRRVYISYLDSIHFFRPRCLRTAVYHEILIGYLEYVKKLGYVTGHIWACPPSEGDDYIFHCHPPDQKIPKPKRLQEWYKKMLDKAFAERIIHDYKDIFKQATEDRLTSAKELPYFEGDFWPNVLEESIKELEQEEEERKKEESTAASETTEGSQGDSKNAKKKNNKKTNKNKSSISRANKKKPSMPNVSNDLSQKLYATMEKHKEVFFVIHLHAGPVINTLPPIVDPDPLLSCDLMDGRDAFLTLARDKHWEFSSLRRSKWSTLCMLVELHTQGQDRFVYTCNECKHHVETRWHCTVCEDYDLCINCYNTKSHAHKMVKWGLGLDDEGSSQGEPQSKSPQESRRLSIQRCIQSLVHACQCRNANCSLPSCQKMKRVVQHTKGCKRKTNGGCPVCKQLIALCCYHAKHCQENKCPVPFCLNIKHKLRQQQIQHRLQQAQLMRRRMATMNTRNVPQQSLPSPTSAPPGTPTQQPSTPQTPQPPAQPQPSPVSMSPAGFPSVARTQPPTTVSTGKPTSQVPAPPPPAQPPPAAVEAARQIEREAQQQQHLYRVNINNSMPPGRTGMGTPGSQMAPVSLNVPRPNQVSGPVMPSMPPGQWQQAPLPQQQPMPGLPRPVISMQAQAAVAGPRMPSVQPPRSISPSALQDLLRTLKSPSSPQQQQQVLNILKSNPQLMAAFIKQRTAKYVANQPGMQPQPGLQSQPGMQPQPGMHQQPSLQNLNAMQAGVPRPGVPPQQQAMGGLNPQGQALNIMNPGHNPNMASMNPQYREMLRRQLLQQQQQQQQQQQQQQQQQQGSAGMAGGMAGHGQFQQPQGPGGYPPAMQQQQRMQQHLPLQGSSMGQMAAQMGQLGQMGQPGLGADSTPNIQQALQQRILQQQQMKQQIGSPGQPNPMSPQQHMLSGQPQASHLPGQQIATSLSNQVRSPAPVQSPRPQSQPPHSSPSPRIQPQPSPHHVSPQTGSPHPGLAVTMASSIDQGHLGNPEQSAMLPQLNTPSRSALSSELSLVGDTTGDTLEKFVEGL
# Experimental: HA-CBP and Flag-p53 were transfected into human embryonic kidney (HEK) 293T cells with recommended amount of Fugene 6 (Roche). After transfection, the HA-CBP and Flag-p53 co-transfected cells were treated with ischemin in the presence or absence of doxorubicin. To test the inhibitory potential of ischemin against CBP and p53 association, CBP was first immuno-precipitated by pulling-down with HA-agarose beads (Sigma) and its association with p53 was then determined with western blot using anti-Flag antibody (Sigma).
# It was also investigated whether ischemin down-regulates p53 by blocking p53 binding to CBP. Haemaglutinin-tagged CBP(HA-CBP) and Flag-tagged p53 (Flag-p53) was overexpressed in human embryonic kidney (HEK) 293T cells.
# [3] = test system: p53 target genes; test: RT-PCR array of p53 signaling pathway genes in U20S cells; assay type: cell-based
# Experimental: The selectivity of ischemin in transcription inhibition of p53 target genes was evaluated using a RT-PCR array analysis of RNA isolated from biological samples of U20S cells. The array was performed on RNA isolated from three different biological repeats in U20S cells using a set of primers selected for a group of genes that are known to be associated within p53 signaling pathways. The differentially expressed genes in treated related to untreated groups, i.e. doxorubicin treated versus untreated, or doxorubicin plus ischemin versus doxorubicin alone, were subjected to pathway analysis by using the Ingenuity System software. The fold changes of these genes were converted to log2Ratio and then imported into IPA tool along with gene symbols. The enriched pathways in the gene list were identified by Fisher exact test at p value of 0.05 and visualized in Canonical pathway explorer.
# [4] = test system: cardiomyocytes; test: TUNEL apoptosis assay in primary neonatal rat cardiomyocytes; assay type: cell-based
# Experimental: The ability of ischemin to inhibit apoptosis in cardiomyocytes under DNA damage stress was evaluated. Primary neonatal rat cardiomyocytes were isolated and maintained in culture, then, treated with doxorubicin for 24 hours to induce DNA damage in the presence or absence of ischemin. The DNA damage induced by apoptosis was analyzed by the TUNEL (terminal deoxynucleotidyl transferase dUTP nick and end labeling) assay, in which a terminal deoxynucleotidyl transferase was used to identify 3′-OH of DNA generated by DNA fragmentation resulting from apoptosis, and then labels it with biotinylated dUTP. The latter was then detected with avidin-conjugated FITC for specific staining. Neonatal rat ventricular myocytes (NRVMs) were isolated by enzymatic dissociation of cardiac ventricle from 1-to-2-day-old Sprague-Dawley pups using the Worthington neonatal cardiomyocyte isolation system (Worthington). Briefly, the pups were anesthetized and their hearts were excised. The ventricular tissues were minced in ice cold HBSS and then digested with trypsin overnight at 4° C. followed by collagenase treatment for 45 min at 37° C. […] After treatment with compounds overnight and then doxorubicin for 24 hours, the intensities of luminecnce were read. […]
# [5] = test system: p53; test: Immunoblot of doxorubicin-treated primary neonatal rat cardiomyocytes; assay type: cell-based
# Text: FIG. 4. Ischemin functions a cellular protective agent against myocardial ischemic stress. (A) TUNEL assay showing ischemin inhibition of doxorubicin-induced apoptosis in rat neonatal cardiomyocytes. (B) Evaluation of ischemin effects in U20S cells and cardiomyocytes. The immunoblots show down-regulation of doxorubicin-induced activated p53 in both cell types in the presence of ischemin, while levels of H2XS139p remained the same. (C) Inhibition of doxorubicin-induced caspase 3/7 activation in cardiomyocytes by ischemin.
# (§1) The latter argues that ATM is active in presence of ischemin, which is consistent with our analysis using Western blots (FIG. 2B).
# [6] = test system: CBP/p300; test: Fluorescence-based lysine acetyltransferase assay with histone H3 peptide substrate; assay type: biochemical; conditions: data not shown
# Text: as §1
compound,measurement,setting,value
"Cc1cc(/N=N/c2cc(S(=O)(=O)O)c(C)cc2C)c(N)cc1O [Ischemin/MS120, 5-(2-amino-4-hydroxy-5-methylphenylazo)-2,4-dimethylbenzenesulfonic acid]",Toxicity to U20S cells,[1]; 50 μM,not toxic
same,Prevention of doxorubicin-induced cell cycle arrest (decrease of BRDU incorporation),"[1]; compound 50 μM, doxorubicin 5 μM, U20S cells",almost completely prevented; also recorded: prevents a doxorubicin-induced decrease of BRDU incorporation
same,Inhibition of p53 binding to CBP,[2],inhibiting in a dose-dependent manner
same,"Doxorubicin-induced expression of p53 target genes (CCNE2, CCNG2, CDC2, CDC25A, CDKN1A, CDKN2A, GADD45A, E2F1, E2F3, PCNA, SESN1, SESN2)",[3],differentially reduce
same,Toxicity in cardiomyocytes,[4]; ischemin alone,no toxicity
same,Inhibition of doxorubicin-induced apoptosis (TUNEL),"[4]; neonatal rat cardiomyocytes, doxorubicin 24 hours",effectively inhibit
same,Doxorubicin induced p53 activation,[5],able to inhibit
same,H2AX phosphorylation at Ser139,[5],did not alter
same,Direct inhibition of lysine acetyltransferase activity of CBP/p300,[6],ruled out
